Tests used:
∆AKT2 = assay: PH domain null AKT2 biochemical kinase assay (FP iMAP)
Procedure: (§1) Biochemical analysis was performed using kinases obtained from Millipore (AKT1, ∆AKT1, ∆AKT2, ∆AKT3) and Signal Chem (AKT2 and AKT3). The specific activity of AKT 1,2 and 3 was determined to be 114 nmol/min/mg, 44 nmol/min/mg and 200 nmol/min/mg respectively as per activity assay protocol. ALM301 was profiled using the Fluorescent Polarisation (FP) iMAP Screening Express kit (Molecular Devices) using the FAM-Crosstide substrate [5FAM-[…]-OH] (Molecular Devices) against the three isoforms of AKT and their PH domain null mutants. Compounds were dissolved in DMSO prior to screening at 14 point titration series in the range (50 µM–50 pM). Fluorescence polarisation was measured using a Biotek Synergy 4 Hybrid microplate reader. Percentage inhibition of kinase activity was calculated and IC50 values derived using non-linear regression on GraphPad Prism. Competition of ALM301 with ATP was determined using AKT1 under increasing ATP concentrations up to 1000 µM.

[1] = test system: pAKT^S473 in A549 tumours; assay: PK/PD study in A549 lung cancer xenograft model; format: in vivo, mouse; conditions: single oral dose 10, 30 or 100 mg/kg
Procedure: In order to understand the relationship between ALM301 plasma exposure and in vivo AKT target engagement over time, a PK/PD study was carried out in a A549 lung cancer xenograft model. […] ALM301 plasma concentrations and levels of pAKT^S473 in tumours were measured using western blotting and immunohistochemistry (Fig. 4A, B and Supplementary Fig. S4A–C). […] Tumour sections were collected following one dose of either vehicle or 30 mg/kg of ALM301 at noted time intervals (1 h, 2 h, 4 h, 8 h, 24 h). Tissue sections were subsequently stained with pAKT antibody (brown) staining and scored for pAKT staining using a scale of 1–4 (low to high) (Fig. 4B).
For pharmacokinetic/pharmacodynamic (PK/PD) studies in A549 lung cancer xenografts, 150 male BALB/c nude mice aged 6–8 weeks and weighing approximately 18–22 g were inoculated with 1 × 10^7 A549 tumour cells (ATCC) in 0.1 mL of PBS with Matrigel (1:1) subcutaneously into the right flank. Once the mean tumour size reached 150–250 mm^3, the mice were randomised into treatment groups (18 mice per group) using a randomised block design (first, experimental animals are divided into homogeneous blocks according to their initial tumour volume; secondly, within each block, randomisation of animals to treatment groups was conducted so that each animal had the same probability of being assigned to a given treatment, thereby reducing systematic bias). Group sizes were devised based on previous pilot studies using a minimal numbers approach of n = 3 tumours per time-point (6 time-points per dose level). […] Tumour size was measured twice weekly in two dimensions using a caliper, and the volume expressed in mm^3 using the formula: V = 0.5 (a × b^2), where a and b are the long and short diameters of the tumour, respectively.

[2] = test system: panel of over 450 kinases; assay: SelectScreen kinase selectivity profiling, full panel; format: biochemical
Procedure: (§2) Off-target kinase activity was performed using the SelectScreen kinase profiling service against either mini 50 kinase or full 450 kinase panels using the Z’lyte and Adapta kinase activity platforms (performed by Thermofisher).

Kinetic solubility assay = format: physicochemical; conditions: PBS buffer, pH 7.4, aqueous buffer, kinetic from dmso stock, PBS pH 7.4; read-out: Kinetic solubility pH7.4
Procedure: Compound solubility was tested in Dulbecco A PBS buffer at pH7.4 in Millipore MultiScreen Solubility Filter plates. Analysis was carried out on a Bioteck Synergy 4 plate reader (240–400 nm) and solubility quantified against a 5-point calibration curve.

LogD7.4 assay = format: physicochemical; conditions: octanol/PBS buffer; octanol/PBS pH 7.4
Procedure: Compounds (100 µM) were shaken at 300 rpm at room temperature for 4 h in a biphasic system of octanol and PBS buffer pH 7.4 in a 96-well plate in triplicate. The relative drug concentration in each phase was then determined by the peak area measurement from LC-UV analysis on an Agilent 1260 chromatography instrument (UV detection at 254 nm and 220 nm). LogD is calculated as follows: LogD = Log[peak area of compound in octanol x injection volume of buffer phase/peak area of compound in buffer x injection volume of octanol phase].

[3] = In vitro microsomal stability, human; format: in vitro ADME; conditions: pH 7.4; human liver microsomes; read-out: human LM CLint
Procedure: Compounds (final concentration = 1 µM; final DMSO concentration = 0.1%) were incubated in 0.1 M phosphate buffer at pH 7.4 with liver microsomes (human, mouse, rat or dog; 0.5 mg of protein/mL) at 37 °C. Reactions were started by addition of NADPH in 0.1 M phosphate buffer pH 7.4 (final concentration 1 mM). Reactions were quenched by addition of ice-cold methanol and frozen. The supernatants were analysed by LC/MS/MS on a Waters Acquity I-Class coupled to a Waters Xevo TQD mass spectrometer. A Waters BEH C18 2.1 × 50 mm 1.7 µm column was used and mobile phases consisted of water and methanol containing 0.1% formic acid as modifier. Analysis was by multiple reaction monitoring and conditions were optimised for each test compound.

CYP 2C9 = CYP 2C9 (Homo sapiens, UniProt P11712); assay: CYP2C9 inhibition; format: in vitro ADME
AKT1 = target: T1, AKT1 (Homo sapiens, UniProt P31749); assay: SelectScreen kinase selectivity profiling, AKT1; format: biochemical; conditions: read-out: % inhibition @ 10 µM, AKT1; 10 µM fixed concentration
T1 construct: purchased Millipore
Procedure: as §2

A549 cells = assay: In vitro proliferation assay (CellTiter-Glo), A549; format: cell-based; conditions: Homo sapiens; A549 cell line
Procedure: MCF-7, T47D, NCI-H460, HCT116, LNCaP, A431, PC3, PANC-1, A549, HT29M, SKOV-3, Du145, HMEC-1, Hs888Lu, Hela, MDA-MB-231 and SW480 cells were obtained from American Type Culture Collection (ATCC). A2780, PNT2, U251MG, HFFF2 and Fr2 cells were obtained from Public Health England European Collection of Authenticated Cell Cultures (Phe ECACC). InMyoFib and NHLF cells were acquired from Lonza. Cells were then incubated with increasing concentration of inhibitor (1 nM to 100 µM) for 72 h at 37 °C. Cell viability was determined using the CellTiter-Glo Luminescent Cell Viability Assay (Promega). IC50 values were derived as previously stated.

∆AKT3 = assay: PH domain null AKT3 biochemical kinase assay (FP iMAP)
Procedure: as §1

Sequence of CYP 2C9 (P11712 whole entry): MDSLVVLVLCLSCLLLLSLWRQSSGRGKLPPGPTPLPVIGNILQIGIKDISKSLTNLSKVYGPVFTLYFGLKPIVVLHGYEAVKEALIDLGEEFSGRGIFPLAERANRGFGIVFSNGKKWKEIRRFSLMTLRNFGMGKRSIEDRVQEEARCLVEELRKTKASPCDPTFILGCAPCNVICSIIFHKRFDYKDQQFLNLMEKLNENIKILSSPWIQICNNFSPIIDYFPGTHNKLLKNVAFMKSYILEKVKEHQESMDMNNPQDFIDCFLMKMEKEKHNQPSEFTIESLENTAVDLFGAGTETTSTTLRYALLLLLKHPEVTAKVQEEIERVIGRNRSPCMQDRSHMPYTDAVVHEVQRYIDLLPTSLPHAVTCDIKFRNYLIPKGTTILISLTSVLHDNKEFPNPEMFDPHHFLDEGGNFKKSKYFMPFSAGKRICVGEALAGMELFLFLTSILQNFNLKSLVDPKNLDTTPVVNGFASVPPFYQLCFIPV
T1 sequence (P31749 whole entry): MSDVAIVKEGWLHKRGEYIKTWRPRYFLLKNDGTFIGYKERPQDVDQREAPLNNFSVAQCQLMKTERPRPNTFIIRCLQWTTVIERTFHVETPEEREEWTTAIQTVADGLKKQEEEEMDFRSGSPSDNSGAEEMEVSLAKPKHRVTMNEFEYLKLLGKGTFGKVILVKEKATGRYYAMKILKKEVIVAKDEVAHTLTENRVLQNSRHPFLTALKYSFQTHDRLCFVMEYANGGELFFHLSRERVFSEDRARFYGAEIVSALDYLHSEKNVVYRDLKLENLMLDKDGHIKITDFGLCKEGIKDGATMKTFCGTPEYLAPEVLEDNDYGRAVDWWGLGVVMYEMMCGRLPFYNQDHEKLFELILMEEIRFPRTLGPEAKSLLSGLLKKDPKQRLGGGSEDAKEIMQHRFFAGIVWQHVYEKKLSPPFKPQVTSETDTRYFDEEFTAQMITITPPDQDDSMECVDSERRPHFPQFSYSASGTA

## CCN1C(=O)COc2nc(-c3ccc([C@]4(N)C[C@@H](O)C4)cc3)c(-c3ccccc3)cc21 [ALM301, 6-(4-((1S,3S)-1-amino-3-hydroxycyclobutyl)phenyl)-1-ethyl-7-phenyl-1H-pyrido[2,3-b][1,4]oxazin-2(3H)-one]
∆AKT2
  inhibition of truncated AKT2 lacking PH domain: not inhibited
[1]; all timepoints over 24 h, BALB/c mice bearing A549 xenografts
  pAKT^S473 in tumours: almost total abrogation
[1]; mice bearing A549 xenografts
  total plasma concentrations: dose-dependent increases
[2]; 21 PH domain containing kinases assayed
  inhibition versus the additional 21 PH domain containing kinases: did not demonstrate any inhibition
[2]; fixed concentration of 10 µM
  selectivity against a panel of over 450 kinases: highly selective
Kinetic solubility assay
  solubility kinetic: 192 µM
LogD7.4 assay
  logD at 4 h: 1.2
[3]
  microsomal CLint at 1 µM: 3.7 µL/min/mg
CYP 2C9
  IC50: > 25 µM
AKT1
  inhibition at 10 µM: 95%
A549 cells
  IC50: 43 µM
∆AKT3
  inhibition of truncated AKT3 lacking PH domain: not inhibited
